# Reference: patent US9469650B2, “Melampomagnolide B derivatives” (BOARD OF TRUSTEES OF THE UNIVERSITY OF ARKANSAS, priority 2013, dated 2016)
# Like-named read-outs stand apart in the source and are kept apart here.
# How the values were obtained:
# [1] = test system: HL-60(TB)
# [2] = test system: M14; assay: panel of 60 human tumor cell lines, growth inhibition (Melanoma); conditions: M14
# [3] = test system: MDA-MB-435; assay: as above; conditions: MDA-MB-435
# [4] = test system: SK-MEL-2; assay: as above; conditions: SK-MEL-2
# [5] = test system: SK-MEL-5; assay: as above; conditions: 8K-MEL-5
# [6] = test system: SF-268; assay: panel of 60 human tumor cell lines, growth inhibition (CNS Cancer); conditions: SF-268
# [7] = test system: HCT-15; assay: panel of 60 human tumor cell lines, growth inhibition (Colon Cancer); conditions: HCT-15
# [8] = test system: ACHN; assay: panel of 60 human tumor cell lines, growth inhibition (Renal Cancer)
# [9] = test system: SN12C; assay: as above
# [10] = test system: TK-10; assay: as above; conditions: TK-10
# [11] = test system: MCF7; assay: panel of 60 human tumor cell lines, growth inhibition (Breast Cancer); conditions: MCF7
# [12] = test system: MDA-MB-231/ATCC; assay: as above; conditions: MDA-MB-231/ATCC
# [13] = test system: HS 578T; assay: as above; conditions: HS 578T
# [14] = test system: BT-549; assay: as above; conditions: BT-549
# [15] = test system: IGROV1; assay: panel of 60 human tumor cell lines, growth inhibition (Ovarian Cancer); conditions: IGROVI
# [16] = test system: OVCAR-8; assay: as above; conditions: OVCAR-8
# [17] = test system: A549/ATCC; assay: panel of 60 human tumor cell lines, growth inhibition (Non-Small Cell Lung Cancer); conditions: A549/ATCC
# [18] = test system: NCI-H226; assay: as above; conditions: NCI-H226
# [19] = test system: NCI-H460; assay: as above; conditions: NCI-H460
compound,measurement,setting,value
C=C1C(=O)O[C@H]2[C@H]1CC/C(COC(=O)N1CCC(F)(F)CC1)=C\CC[C@@]1(C)O[C@@H]21 [JVM 2-66],GI50,[1],2.04 µM
same,TGI,[1],7.15E−6
same,Percent Growth,[1]; Log10 Concentration −4.0,−49%
same,Percent Growth,[1]; Log10 Concentration −5.0,−13%
same,Percent Growth,[1]; Log10 Concentration −6.0,79%
same,Percent Growth,[1]; Log10 Concentration −7.0,84%
same,Percent Growth,[1]; Log10 Concentration −8.0,97%
same,CC50,[1]; read-out: LC50,> 100 µM
same,Percent Growth,[2]; Log10 Concentration −4.0,−85%
same,Percent Growth,[2]; Log10 Concentration −5.0,8%
same,Percent Growth,[2]; Log10 Concentration −6.0,85%
same,Percent Growth,[2]; Log10 Concentration −7.0,87%
same,Percent Growth,[2]; Log10 Concentration −8.0,96%
same,GI50,[3],0.464 µM
same,TGI,[3],1.89E−5
same,Percent Growth,[3]; Log10 Concentration −4.0,−52%
same,Percent Growth,[3]; Log10 Concentration −5.0,20%
same,Percent Growth,[3]; Log10 Concentration −6.0,30%
same,Percent Growth,[3]; Log10 Concentration −7.0,91%
same,Percent Growth,[3]; Log10 Concentration −8.0,98%
same,GI50,[4],2.93 µM
same,TGI,[4],8.95E−6
same,Percent Growth,[4]; Log10 Concentration −4.0,−84%
same,Percent Growth,[4]; Log10 Concentration −5.0,−5%
same,Percent Growth,[4]; Log10 Concentration −6.0,98%
same,Percent Growth,[4]; Log10 Concentration −7.0,99%
same,Percent Growth,[4]; Log10 Concentration −8.0,100%
same,GI50,[5],3.81 µM
same,TGI,[5],1.50E−5
same,Percent Growth,[5]; Log10 Concentration −4.0,−96%
same,Percent Growth,[5]; Log10 Concentration −5.0,21%
same,Percent Growth,[5]; Log10 Concentration −6.0,91%
same,Percent Growth,[5]; Log10 Concentration −7.0,99%
same,Percent Growth,[5]; Log10 Concentration −8.0,99%
same,GI50,[6],10.7 µM
same,TGI,[6],2.47E−5
same,Percent Growth,[6]; Log10 Concentration −4.0,−84%
same,Percent Growth,[6]; Log10 Concentration −5.0,54%
same,Percent Growth,[6]; Log10 Concentration −6.0,95%
same,Percent Growth,[6]; Log10 Concentration −7.0,93%
same,Percent Growth,[6]; Log10 Concentration −8.0,95%
same,GI50,[7],1.47 µM
same,TGI,[7],3.84E−6
same,Percent Growth,[7]; Log10 Concentration −4.0,−86%
same,Percent Growth,[7]; Log10 Concentration −5.0,−50%
same,Percent Growth,[7]; Log10 Concentration −6.0,70%
same,Percent Growth,[7]; Log10 Concentration −7.0,94%
same,Percent Growth,[7]; Log10 Concentration −8.0,100%
same,GI50,[8],1.79 µM
same,TGI,[8],5.68E−6
same,Percent Growth,[8]; Log10 Concentration −4.0,−83%
same,Percent Growth,[8]; Log10 Concentration −5.0,−25%
same,Percent Growth,[8]; Log10 Concentration −6.0,75%
same,Percent Growth,[8]; Log10 Concentration −7.0,93%
same,Percent Growth,[8]; Log10 Concentration −8.0,103%
same,CC50,[8]; read-out: LC50,27.4 µM
same,GI50,[9],2.72 µM
same,TGI,[9],1.06E−5
same,Percent Growth,[9]; Log10 Concentration −4.0,−89%
same,Percent Growth,[9]; Log10 Concentration −5.0,3%
same,Percent Growth,[9]; Log10 Concentration −6.0,86%
same,Percent Growth,[9]; Log10 Concentration −7.0,94%
same,Percent Growth,[9]; Log10 Concentration −8.0,98%
same,GI50,[10],2.6 µM
same,TGI,[10],6.55E−6
same,Percent Growth,[10]; Log10 Concentration −4.0,−96%
same,Percent Growth,[10]; Log10 Concentration −5.0,−23%
same,Percent Growth,[10]; Log10 Concentration −6.0,102%
same,Percent Growth,[10]; Log10 Concentration −7.0,95%
same,Percent Growth,[10]; Log10 Concentration −8.0,94%
same,GI50,[11],1.62 µM
same,TGI,[11],4.91E−6
same,Percent Growth,[11]; Log10 Concentration −4.0,−75%
same,Percent Growth,[11]; Log10 Concentration −5.0,−32%
same,Percent Growth,[11]; Log10 Concentration −6.0,72%
same,Percent Growth,[11]; Log10 Concentration −7.0,83%
same,Percent Growth,[11]; Log10 Concentration −8.0,89%
same,GI50,[12],2.01 µM
same,TGI,[12],6.59E−6
same,Percent Growth,[12]; Log10 Concentration −4.0,−84%
same,Percent Growth,[12]; Log10 Concentration −5.0,−18%
same,Percent Growth,[12]; Log10 Concentration −6.0,79%
same,Percent Growth,[12]; Log10 Concentration −7.0,92%
same,Percent Growth,[12]; Log10 Concentration −8.0,101%
same,GI50,[13],13.5 µM
same,TGI,[13],7.06E−5
same,Percent Growth,[13]; Log10 Concentration −4.0,−10%
same,Percent Growth,[13]; Log10 Concentration −5.0,59%
same,Percent Growth,[13]; Log10 Concentration −6.0,89%
same,Percent Growth,[13]; Log10 Concentration −7.0,93%
same,Percent Growth,[13]; Log10 Concentration −8.0,93%
same,GI50,[14],2.69 µM
same,TGI,[14],8.54E−6
same,Percent Growth,[14]; Log10 Concentration −4.0,−99%
same,Percent Growth,[14]; Log10 Concentration −5.0,−7%
same,Percent Growth,[14]; Log10 Concentration −6.0,93%
same,Percent Growth,[14]; Log10 Concentration −7.0,98%
same,Percent Growth,[14]; Log10 Concentration −8.0,100%
same,GI50,[15],2.31 µM
same,TGI,[15],7.26E−6
same,Percent Growth,[15]; Log10 Concentration −4.0,−60%
same,Percent Growth,[15]; Log10 Concentration −5.0,−14%
same,Percent Growth,[15]; Log10 Concentration −6.0,87%
same,Percent Growth,[15]; Log10 Concentration −7.0,106%
same,Percent Growth,[15]; Log10 Concentration −8.0,107%
same,GI50,[16],2.83 µM
same,TGI,[16],1.01E−5
same,Percent Growth,[16]; Log10 Concentration −4.0,−86%
same,Percent Growth,[16]; Log10 Concentration −6.0,91%
same,Percent Growth,[16]; Log10 Concentration −7.0,96%
same,Percent Growth,[16]; Log10 Concentration −8.0,98%
same,GI50,[17],11.3 µM
same,TGI,[17],2.74E−5
same,Percent Growth,[17]; Log10 Concentration −4.0,−73%
same,Percent Growth,[17]; Log10 Concentration −5.0,57%
same,Percent Growth,[17]; Log10 Concentration −6.0,93%
same,Percent Growth,[17]; Log10 Concentration −7.0,97%
same,Percent Growth,[17]; Log10 Concentration −8.0,98%
same,TGI,[18],4.35E−6
same,Percent Growth,[18]; Log10 Concentration −4.0,−71%
same,Percent Growth,[18]; Log10 Concentration −5.0,−49%
same,Percent Growth,[18]; Log10 Concentration −6.0,87%
same,Percent Growth,[18]; Log10 Concentration −7.0,90%
same,Percent Growth,[18]; Log10 Concentration −8.0,102%
same,GI50,[19],13.3 µM
same,TGI,[19],3.10E−5
same,Percent Growth,[19]; Log10 Concentration −4.0,−69%
same,Percent Growth,[19]; Log10 Concentration −5.0,67%
same,Percent Growth,[19]; Log10 Concentration −6.0,99%
same,Percent Growth,[19]; Log10 Concentration −7.0,101%
same,Percent Growth,[19]; Log10 Concentration −8.0,100%
